# Test results from ChEMBL document CHEMBL1201862, “PubChem BioAssay data set” (2004).
# Active and inactive are the calls of the source.
# Tests used:
# Cytochrome P450 2C19 = Cytochrome P450 2C19 (Homo sapiens, UniProt P33261); test: Cytochrome panel assay with activity outcomes. Panel member name: p450-cyp2c19 Compounds with AC50 equal or less than 10 uM are considered active; assay type: functional
# [1] = target: T1, Replicative DNA helicase DnaB (Mycobacterium tuberculosis, UniProt P9WMR3); test: DnaB intein splicing inhibitors, dose response, biochemical, cell-free fluorescence (AID 449749); assay type: functional
# T1 sequence (P9WMR3 whole entry): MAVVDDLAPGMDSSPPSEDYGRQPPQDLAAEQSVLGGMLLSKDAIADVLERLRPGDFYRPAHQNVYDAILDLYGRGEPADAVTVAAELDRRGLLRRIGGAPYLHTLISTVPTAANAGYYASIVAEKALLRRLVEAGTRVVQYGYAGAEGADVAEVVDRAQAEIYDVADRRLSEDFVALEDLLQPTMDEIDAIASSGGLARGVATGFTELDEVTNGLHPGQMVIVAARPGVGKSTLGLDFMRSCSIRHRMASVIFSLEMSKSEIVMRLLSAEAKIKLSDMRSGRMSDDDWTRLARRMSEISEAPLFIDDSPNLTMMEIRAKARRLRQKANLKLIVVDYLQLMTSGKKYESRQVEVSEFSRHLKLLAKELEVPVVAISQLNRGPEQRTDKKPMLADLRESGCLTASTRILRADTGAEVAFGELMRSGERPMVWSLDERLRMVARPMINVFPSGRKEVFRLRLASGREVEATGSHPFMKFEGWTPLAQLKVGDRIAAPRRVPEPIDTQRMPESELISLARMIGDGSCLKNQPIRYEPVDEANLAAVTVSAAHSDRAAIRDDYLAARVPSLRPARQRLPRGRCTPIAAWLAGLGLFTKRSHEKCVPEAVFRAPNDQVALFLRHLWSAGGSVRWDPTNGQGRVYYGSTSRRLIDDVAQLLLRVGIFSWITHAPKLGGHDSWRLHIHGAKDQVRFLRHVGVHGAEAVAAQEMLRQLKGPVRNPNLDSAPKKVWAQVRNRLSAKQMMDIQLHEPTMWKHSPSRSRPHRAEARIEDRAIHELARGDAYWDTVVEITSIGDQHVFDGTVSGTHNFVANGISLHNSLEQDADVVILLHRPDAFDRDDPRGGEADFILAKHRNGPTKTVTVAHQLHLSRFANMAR
# Protein RecA = target: T2, Protein RecA (Mycobacterium tuberculosis, UniProt P9WHJ3); test: Fluorescence Cell-Free Homogeneous Dose Retest to Identify Inhibitors of RecA-Intein Splicing Activity. [Related pubchem assays (depositor defined):AID2097, AID2223, AID489010, AID492950]; assay type: functional
# T2 sequence (P9WHJ3 whole entry): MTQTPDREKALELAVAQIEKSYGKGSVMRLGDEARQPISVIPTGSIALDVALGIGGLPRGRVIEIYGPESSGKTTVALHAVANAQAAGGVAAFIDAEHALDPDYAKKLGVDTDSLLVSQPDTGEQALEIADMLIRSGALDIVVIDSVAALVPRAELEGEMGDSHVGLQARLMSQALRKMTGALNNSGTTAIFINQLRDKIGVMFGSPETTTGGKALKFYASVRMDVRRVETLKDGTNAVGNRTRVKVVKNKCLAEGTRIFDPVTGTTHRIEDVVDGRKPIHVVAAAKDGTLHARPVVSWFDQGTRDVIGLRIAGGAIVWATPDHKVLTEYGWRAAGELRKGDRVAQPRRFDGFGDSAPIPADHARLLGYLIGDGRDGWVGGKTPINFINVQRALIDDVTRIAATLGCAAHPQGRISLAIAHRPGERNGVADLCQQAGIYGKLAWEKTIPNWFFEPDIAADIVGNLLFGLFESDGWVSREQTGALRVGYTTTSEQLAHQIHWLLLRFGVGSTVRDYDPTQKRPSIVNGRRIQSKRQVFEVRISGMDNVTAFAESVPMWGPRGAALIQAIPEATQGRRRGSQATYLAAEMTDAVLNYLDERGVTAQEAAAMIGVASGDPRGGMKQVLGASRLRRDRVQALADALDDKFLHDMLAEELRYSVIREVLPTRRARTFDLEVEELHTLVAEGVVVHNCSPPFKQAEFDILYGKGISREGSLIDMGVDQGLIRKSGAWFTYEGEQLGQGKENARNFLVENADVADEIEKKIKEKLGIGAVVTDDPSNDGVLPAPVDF
# [2] = Trypanosoma cruzi growth suppression in host cells – NIH3T3 host cells, beta-gal luminescence, confirmation (AID 2044); assay type: functional, cell-based;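 further: intracellular parasites grown in NIH/3T3 mouse fibroblasts as host cells; luminescent beta-galactosidase reporter signal from transgenic T. cruzi replicating inside host cells; inhibitors lower the luminescence signal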
# [3] = NIH3T3 cell viability loss – ATP luminescence, mouse fibroblasts, counter-screen, dose response (AID 2010); assay type: functional, cell-based;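 further: cells exposed to compound for about 90 hours before reading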
# Cytochrome P450 3A4 = Cytochrome P450 3A4 (Homo sapiens, UniProt P08684);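 further: CYP3A4 tested as one member of a cytochrome P450 panel screen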
# Chain of Cytochrome P450 3A4 (P08684 whole entry): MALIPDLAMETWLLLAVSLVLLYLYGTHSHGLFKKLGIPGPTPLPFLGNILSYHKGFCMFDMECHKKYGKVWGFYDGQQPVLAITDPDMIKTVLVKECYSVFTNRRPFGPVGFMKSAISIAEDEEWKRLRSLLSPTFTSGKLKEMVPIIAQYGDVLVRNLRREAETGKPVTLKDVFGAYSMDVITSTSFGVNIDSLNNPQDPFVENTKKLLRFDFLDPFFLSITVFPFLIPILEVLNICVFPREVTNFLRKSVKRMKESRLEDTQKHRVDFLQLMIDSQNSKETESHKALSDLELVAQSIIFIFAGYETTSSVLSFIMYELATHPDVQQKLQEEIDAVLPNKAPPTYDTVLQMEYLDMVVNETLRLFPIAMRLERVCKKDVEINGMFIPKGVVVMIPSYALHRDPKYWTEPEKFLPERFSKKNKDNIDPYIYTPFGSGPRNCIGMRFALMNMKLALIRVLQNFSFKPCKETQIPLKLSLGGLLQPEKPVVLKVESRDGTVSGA
# [4] = test system: Streptococcus sp. 'group A'; test: Streptococcus pyogenes SK(-)GAS viability under kanamycin – luminescence, BacTiterGlo, confirmation, counter-screen for streptokinase expression inhibitor project, dose response (AID 1900); assay type: functional, organism-based
# Streptococcus = test: GAS UMAA2166 growth inhibition – luminescence, BacTiterGlo, counter-screen for streptokinase expression inhibitor project, dose response (AID 1915); assay type: functional, organism-based;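 further: potency for reduction of bacterial viability or growth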
# Chain of Cytochrome P450 2C19 (P33261 whole entry): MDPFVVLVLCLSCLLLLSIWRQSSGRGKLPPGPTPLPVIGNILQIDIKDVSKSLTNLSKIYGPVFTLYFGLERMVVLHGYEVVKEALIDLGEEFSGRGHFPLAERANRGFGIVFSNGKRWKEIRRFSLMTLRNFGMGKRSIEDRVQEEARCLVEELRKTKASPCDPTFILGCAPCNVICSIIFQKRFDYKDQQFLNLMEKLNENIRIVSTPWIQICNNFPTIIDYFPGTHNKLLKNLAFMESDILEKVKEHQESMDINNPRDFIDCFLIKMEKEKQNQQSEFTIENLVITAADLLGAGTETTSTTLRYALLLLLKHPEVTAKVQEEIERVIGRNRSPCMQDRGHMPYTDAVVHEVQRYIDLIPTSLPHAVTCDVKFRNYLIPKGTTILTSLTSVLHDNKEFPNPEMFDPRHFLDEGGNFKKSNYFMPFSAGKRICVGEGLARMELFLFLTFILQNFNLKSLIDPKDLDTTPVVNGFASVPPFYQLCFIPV
smiles,measurement,setting,value
COc1cccc(Cn2c(=O)c(C)nc3cnc(N4CCN(C)CC4)nc32)c1,AC50,Cytochrome P450 2C19; read-out: AC50,39.8 µM (inconclusive)
COc1cc(/C=N/NC(=S)Nc2cccc(Cl)c2C)ccc1OCC(=O)N1CC(C)OC(C)C1 (configuration not stated),AC50,[1],17.5 µM (active)
same,EC50,Protein RecA,4 µM (active)
O=C(Nc1cccc(F)c1)Nc1ccccn1,AC50,Cytochrome P450 2C19; read-out: AC50,17.8 µM (inconclusive)
CN1CCN(CCOc2ccc(Cc3ccccc3)cc2)CC1,EC50,[2],0.378 µM (active)
same,EC50,[3],> 60 µM (not active)
CCCc1n[nH]c2c1C(c1ccc(OC(=O)N3CCOCC3)c(OC)c1)C(C#N)=C(N)O2 (configuration not stated),AC50,[1],32.2 µM (active)
same,EC50,Protein RecA,10 µM (active)
COc1cc(/C=C(/NC(=O)c2ccccc2Cl)C(=O)O)cc(OC)c1OC,AC50,Cytochrome P450 3A4,14.1 µM (inconclusive)
CCOC(=O)c1c(N=C(S)N2CCN(C)CC2)sc(C)c1-c1ccccc1,EC50,[4],6.75 µM (active)
same,EC50,[2],0.467 µM (active)
same,EC50,[3],> 30 µM (not active)
same,EC50,Streptococcus,> 150 µM (not active)
COC(=O)c1sc(N)c(C(=O)OC)c1Cn1ncc(Cl)c(Cl)c1=O,AC50,[1],2.66 µM (active)
same,EC50,Protein RecA,0.541 µM (active)
[O-][n+]1c2c(nc3c1-c1ccccc1C3O)CCCC2 (configuration not stated),AC50,[1],19.4 µM (active)
same,EC50,Protein RecA,18.6 µM (active)
CN(C)CCn1c(=O)n(Cc2ccccc2)c(=O)c2c3c(sc21)CCCCC3,EC50,[2],0.505 µM (active)
same,EC50,[3],> 60 µM (not active)
CC1=C(C(=O)OCc2ccccc2)C(c2ccc(Cl)cc2)NC(=O)N1CCCCCC(=O)O (configuration not stated),AC50,Cytochrome P450 2C19; read-out: AC50,39.8 µM (inconclusive)
same,AC50,Cytochrome P450 3A4,10 µM (inconclusive)
Cc1ccccc1-c1nc(-c2ccc(NC(=O)c3cccs3)cc2)no1,AC50,Cytochrome P450 3A4,39.8 µM (inconclusive)
CCOc1ccc(CN2CCN(CC3=Cc4cccc(OC)c4OC3)CC2CCO)cc1 (configuration not stated),EC50,[2],0.303 µM (active)
same,EC50,[3],> 60 µM (not active)
same,AC50,[1],> 380 µM (inactive)
same,EC50,Protein RecA,> 380 µM (inactive)
CCN1CCCC1Cn1cnc2c3cc(C)ccc3nc-2c1O (configuration not stated),AC50,Cytochrome P450 3A4,22.4 µM (inconclusive)
COc1ccc(-n2cc(CN(C)C(C)c3ccncn3)c(-c3cccc(F)c3)n2)cc1 (configuration not stated),EC50,[2],2.99 µM (active)
same,EC50,[3],> 60 µM (not active)
CCCCn1c(-c2cccc3ccccc23)nc2cc3nc(O)c(C(C)C)nc3cc21,EC50,[2],1.08 µM (active)
same,EC50,[3],> 60 µM (not active)
Cc1ccc(C2C(C#N)=C(N)Oc3[nH]c(-c4ccccc4)nc32)o1 (configuration not stated),AC50,[1],21.5 µM (active)
same,EC50,Protein RecA,5.11 µM (active)
Cn1c(=O)c(-c2ccc(Cl)cc2)nc2cnc(N3CCNCC3)nc21,AC50,Cytochrome P450 3A4,20 µM (inconclusive)
Cc1ccccc1N1C(=O)c2ccccc2C1Nc1cccnc1 (configuration not stated),AC50,[1],> 380 µM (inactive)
same,EC50,Protein RecA,> 380 µM (inactive)
Cc1cc(C)c2nc(N(CCCN(C)C)C(=O)c3ccc(S(=O)(=O)N4CC(C)OC(C)C4)cc3)sc2c1 (configuration not stated),EC50,[2],0.297 µM (active)
same,EC50,[3],> 30 µM (not active)
COc1ccc2ccccc2c1CNC(C)CCc1ccccc1 (configuration not stated),EC50,[2],2.94 µM (active)
same,EC50,[3],> 60 µM (not active)
COc1ccc(C(=O)N2CCC3(CCCN(C(=O)Nc4cccc(F)c4)C3)CC2)cc1,AC50,Cytochrome P450 2C19; read-out: AC50,39.8 µM (inconclusive)
CC(C)(C)c1ccc(-c2nc3c(C#N)c(-c4ccc5c(c4)OCO5)ccn3n2)cc1,EC50,[2],1.46 µM (active)
same,EC50,[3],> 60 µM (not active)
Brc1ccc(-c2ccc(/C=N/Nc3nc4ccccc4[nH]3)o2)cc1,EC50,[2],1.03 µM (active)
same,EC50,[3],> 60 µM (not active)
C/C(=N\NC(N)=S)C1=CCC2C3CC[C@H]4CC(O)CC[C@]4(C)C3CC[C@]12C (some centres not stated),EC50,[2],0.159 µM (active)
same,EC50,[3],9.97 µM (active)
O=C(Oc1cccc(OC(=O)c2ccco2)c1)c1ccco1,AC50,[1],2.88 µM (active)
same,EC50,Protein RecA,19.8 µM (active)
O=C(Nc1cccc(F)c1)N1CCCC2(CCN(C(=O)c3cnccn3)CC2)C1,AC50,Cytochrome P450 2C19; read-out: AC50,20 µM (inconclusive)
Cc1ccc(-c2cn(S(=O)(=O)c3cccc([N+](=O)[O-])c3)nc2N)cc1,EC50,[2],1.03 µM (active)
same,EC50,[3],> 30 µM (not active)
CC(C)Oc1c(Br)cc(Br)cc1/C=N/NC(N)=S,EC50,[2],1.35 µM (active)
same,EC50,[3],> 30 µM (not active)
O=C(O)CN1CCN(Cc2ccccc2Cl)C1=O,AC50,Cytochrome P450 3A4,28.2 µM (inconclusive)
CCOC(=O)C(C)Sc1ncc(OC)c(Sc2ccc(Cl)cc2)n1 (configuration not stated),AC50,Cytochrome P450 3A4,20 µM (inconclusive)
CC(=O)NS(=O)(=O)c1ccc(NC(=S)NC(=O)C(C)(C)C)cc1,AC50,Cytochrome P450 2C19,inconclusive
COc1ncc2nc(-c3cc(F)cc(F)c3)c(=O)n(C[C@H]3CCCO3)c2n1,AC50,Cytochrome P450 2C19; read-out: AC50,31.6 µM (inconclusive)
same,AC50,Cytochrome P450 3A4,25.1 µM (inconclusive)
O=C(Nc1cccc(F)c1)N1CC[C@@]2(CCCN(C(=O)c3cc(C(F)(F)F)cc(C(F)(F)F)c3)C2)C1,AC50,Cytochrome P450 2C19; read-out: AC50,25.1 µM (inconclusive)
Cc1ccc(C)n1N1C(=O)/C(=C\c2ccc(Cl)cc2)SC1=S,AC50,Cytochrome P450 3A4,15.8 µM (inconclusive)
CCOc1cc(/C=N/n2cnnc2)c(Br)cc1O,AC50,Cytochrome P450 3A4,14.1 µM (inconclusive)
O=C(Oc1ccc(-n2cnnn2)cc1)c1ccco1,AC50,[1],15.3 µM (active)
same,EC50,Protein RecA,12.7 µM (active)
COc1cc(Cl)cc(/C=C/c2ccc3cccc(O)c3n2)c1OC,EC50,[4],0.851 µM (active)
same,EC50,Streptococcus,1.85 µM (active)
COc1ccc(OC)c(C2C(C#N)=C(N)Oc3c2c(C)nn3-c2cccc(Cl)c2)c1 (configuration not stated),AC50,[1],> 380 µM (inactive)
same,EC50,Protein RecA,6.94 µM (active)
CSc1nc(C)c2c(n1)N(c1ccc(C(F)(F)F)cc1)CC2,AC50,Cytochrome P450 2C19; read-out: AC50,11.2 µM (inconclusive)
O=C(Nc1ccccc1)N1CC[C@@]2(CCCN(C(=O)c3cnccn3)C2)C1,AC50,Cytochrome P450 3A4,15.8 µM (inconclusive)
COc1ccccc1CN1CC[C@@]2(CCCN(S(C)(=O)=O)C2)C1,AC50,Cytochrome P450 3A4,20 µM (inconclusive)
Cc1ccc(/C=C/c2ccc(=O)n(Cc3ccc(Cl)cc3Cl)n2)cc1,AC50,Cytochrome P450 2C19; read-out: AC50,4.47 µM (inconclusive)
CCn1c(S)nnc1-c1ccc2ncccc2c1,AC50,Cytochrome P450 2C19; read-out: AC50,20 µM (inconclusive)
same,AC50,Cytochrome P450 3A4,3.98 µM (inconclusive)
COc1cc(CNCCc2ccccc2)ccc1OCC(=O)NC(C)(C)C,AC50,Cytochrome P450 2C19; read-out: AC50,28.2 µM (inconclusive)
Cc1cc(S(=O)(=O)Nc2ccc(C(=O)NCC(c3ccco3)N3CCCC3)cc2)ccc1F (configuration not stated),EC50,[2],0.578 µM (active)
same,EC50,[3],> 60 µM (not active)
